Assay results: the Kinase Knowledgebase extract (Sharma et al. 2016)

The compounds below were run against PIK3CD (Human) (UniProt O00329) (assay: not given).
Sequence of PIK3CD (Human) (O00329 whole entry, looked up): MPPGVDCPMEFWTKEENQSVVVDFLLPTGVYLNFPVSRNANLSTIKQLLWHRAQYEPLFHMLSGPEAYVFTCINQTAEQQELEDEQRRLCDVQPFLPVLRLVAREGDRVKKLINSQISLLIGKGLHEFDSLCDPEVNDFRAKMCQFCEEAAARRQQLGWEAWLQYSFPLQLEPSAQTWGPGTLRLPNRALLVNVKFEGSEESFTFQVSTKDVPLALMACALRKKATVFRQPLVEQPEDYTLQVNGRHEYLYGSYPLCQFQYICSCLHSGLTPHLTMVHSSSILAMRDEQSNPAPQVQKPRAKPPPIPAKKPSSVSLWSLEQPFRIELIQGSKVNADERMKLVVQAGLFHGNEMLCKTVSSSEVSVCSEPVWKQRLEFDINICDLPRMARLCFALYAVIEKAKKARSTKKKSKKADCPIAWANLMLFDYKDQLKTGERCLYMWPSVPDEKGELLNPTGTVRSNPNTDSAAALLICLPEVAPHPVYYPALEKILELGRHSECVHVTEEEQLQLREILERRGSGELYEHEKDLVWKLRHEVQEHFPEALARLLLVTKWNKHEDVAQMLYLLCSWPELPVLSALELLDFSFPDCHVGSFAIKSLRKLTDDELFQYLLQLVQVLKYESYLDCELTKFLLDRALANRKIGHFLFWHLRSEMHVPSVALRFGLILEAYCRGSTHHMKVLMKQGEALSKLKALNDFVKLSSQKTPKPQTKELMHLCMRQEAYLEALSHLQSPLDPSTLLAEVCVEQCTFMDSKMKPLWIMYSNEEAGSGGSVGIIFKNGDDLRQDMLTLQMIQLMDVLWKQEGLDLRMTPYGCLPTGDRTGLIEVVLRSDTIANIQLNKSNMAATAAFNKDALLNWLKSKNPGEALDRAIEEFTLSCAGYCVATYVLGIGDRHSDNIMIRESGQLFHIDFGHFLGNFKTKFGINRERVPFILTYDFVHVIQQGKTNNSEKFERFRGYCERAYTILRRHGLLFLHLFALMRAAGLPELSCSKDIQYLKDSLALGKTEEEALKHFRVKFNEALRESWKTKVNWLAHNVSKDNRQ
For `COc1c([C@@H](C)n2nc(C)c3c(N)ncnc32)cc(Cl)c(C#N)c1C1CN(C[C@@H](C)O)C1`, the IC50 was 50 to 200 nM.

Each compound was assayed against PIK3CD (Human) (UniProt O00329) (assay: Assessment of PIK3CD Kinase Activity (Scintillation Proximity Assay)).
In the case of `CCOC(=O)N1CC(c2c(C#N)c(Cl)cc(C(C)n3nc(C)c4c(N)ncnc43)c2OC)C1` (stereo not given), the IC50 is reported as ≤ 10 nM. In the case of `CCOc1c(C(C)n2nc(C)c3c(N)ncnc32)cc(Cl)c(C)c1-c1ccc(C(=O)N(C)C)nc1` (stereo not given), the IC50 is reported as ≤ 10 nM. With `COc1c(C(C)n2nc(C)c3c(N)ncnc32)cc(C)c(C#N)c1C1CN(CC(C)(C)O)C1` (stereo not given) the IC50 was ≤ 10 nM. In the case of `CCOc1c(C(C)n2nc(I)c3c(N)ncnc32)cc(Cl)c(C)c1-c1ccc(C(=O)N(C)C)nc1` (stereo not given), the IC50 is reported as ≤ 10 nM. In the case of `CNC(=O)c1ccc(-c2c(C)c(Cl)cc(C(C)n3nc(C)c4c(N)ncnc43)c2OC)cc1F` (stereo not given), the IC50 is reported as ≤ 10 nM. In the case of `CCOc1c(C(C)n2nc(-c3ccn(C)n3)c3c(N)ncnc32)cc(Cl)c(C)c1-c1ccc(C(=O)N(C)C)nc1` (stereo not given), the IC50 is reported as ≤ 10 nM. For `CCOC(=O)N1CC(c2c(C#N)c(Cl)cc(C(C)n3nc(C)c4c(N)ncnc43)c2OCC)C1` (stereo not given), the IC50 was ≤ 10 nM. `COc1c(C(C)n2nc(C)c3c(N)ncnc32)cc(Cl)c(C#N)c1C1CN(CC(C)C)C1` (stereo not given) was tested, and the IC50 was ≤ 10 nM. `CCOc1c(C(C)n2nc(C)c3c(N)ncnc32)cc(Cl)c(C)c1C1CN(C[C@H](C)O)C1` (stereo not given in full) was tested, and the IC50 was ≤ 10 nM. With `CCOc1c(C(C)n2nc(C)c3c(N)ncnc32)cc(Cl)c(C#N)c1C1CN(C(C)(C)C(N)=O)C1` (stereo not given) the IC50 was ≤ 10 nM. `COc1c(C(C)n2nc(C)c3c(N)ncnc32)cc(C#N)c(C)c1-c1ccnc(C(=O)N(C)CCO)c1` (stereo not given) was tested, and the IC50 was 10 to 50 nM. In the case of `COc1c(C(C)n2nc(C)c3c(N)ncnc32)cc(Cl)c(C)c1-c1cnn(CCO)c1` (stereo not given), the IC50 is reported as ≤ 10 nM. For `COc1c(C(C)n2nc(C(F)F)c3c(N)ncnc32)cc(C#N)c(C)c1C1CN(C[C@H](C)O)C1` (stereo not given in full), the IC50 was ≤ 10 nM. `COc1c(C(C)n2nc(C)c3c(N)ncnc32)cc(Cl)c(C)c1-c1cncc(C(=O)N2CCC(O)CC2)c1` (stereo not given) was tested, and the IC50 was ≤ 10 nM. With `CCOc1c(C(C)n2nc(C)c3c(N)ncnc32)cc(Cl)c(C)c1C1CN(CCO)C1` (stereo not given) the IC50 was ≤ 10 nM. `CCOc1c(C(C)n2nc(C)c3c(N)ncnc32)cc(Cl)c(C#N)c1-c1cncc(S(C)(=O)=O)c1` (stereo not given) was tested, and the IC50 was ≤ 10 nM. For `CCOc1c(C(C)n2nc(C)c3c(N)ncnc32)cc(Cl)c(F)c1C1CN(CC)C1` (stereo not given), the IC50 was ≤ 10 nM. In the case of `CCOc1c(C(C)n2nc(CNC)c3c(N)ncnc32)cc(Cl)c(C)c1-c1ccc(C(=O)N(C)C)nc1` (stereo not given), the IC50 is reported as 50 to 200 nM. With `COc1c(C(C)n2nc(C)c3c(N)ncnc32)cc(Cl)c(C)c1-c1ccc(OCCO)nc1` (stereo not given) the IC50 was ≤ 10 nM. `CCOc1c(C(C)n2nc(C)c3c(N)ncnc32)cc(Cl)c(C#N)c1C1CN(C(C)=O)C1` (stereo not given) was tested, and the IC50 was ≤ 10 nM. For `COc1c(C(C)n2ccc(=O)c3c(N)ncnc32)cc(Cl)c(C)c1-c1cncnc1` (stereo not given), the IC50 was ≤ 10 nM. `COCCN1CC(c2c(C)c(Cl)cc(C(C)n3nc(C)c4c(N)ncnc43)c2OC)C1` (stereo not given) was tested, and the IC50 was ≤ 10 nM. `COc1c(C(C)n2ccc3c(N)ncnc32)cc(Cl)c(C)c1-c1ccc(C(=O)N(C)C)nc1` (stereo not given) gave an IC50 of 200 to 500 nM. With `CCNC(=O)N1CC(c2c(C#N)c(Cl)cc(C(C)n3nc(C)c4c(N)ncnc43)c2OCC)C1` (stereo not given) the IC50 was ≤ 10 nM.
